In ChEMBL document CHEMBL1201861, “Genomics of Drug Sensitity in Cancer screening data, Wellcome Trust Sanger Institute”:

Legend:
Assay in all cases: cells
[1] = tested on: U2OS; format: functional, cell-based, Homo sapiens, U-2-OS; conditions: Homo sapiens, U2OS;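 also: growth inhibition of human U-2-OS cells, determined with a cell viability assay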
Description: SANGER: Inhibition of human U-2-OS cell growth in a cell viability assay.

[2] = tested on: CAL-62; format: functional, cell-based, Homo sapiens; conditions: Homo sapiens, CAL-62;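 also: growth inhibition of CAL-62 cells, read out with a cell viability assay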
Description: SANGER: Inhibition of human CAL-62 cell growth in a cell viability assay.

[3] = tested on: MG-63; format: functional, cell-based, Homo sapiens; conditions: Homo sapiens, MG-63;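 also: growth inhibition of human MG-63 cells, read out with a cell viability assay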
Description: SANGER: Inhibition of human MG-63 cell growth in a cell viability assay.

[4] = tested on: NCI-H810; format: functional, cell-based, Homo sapiens; conditions: Homo sapiens, NCI-H810;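 also: IC50 reflects inhibition of cancer cell line growth, read out with a cell viability assay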
Description: SANGER: Inhibition of human NCI-H810 cell growth in a cell viability assay.

[5] = tested on: KYSE-70 cell line; format: functional, cell-based, Homo sapiens; conditions: Homo sapiens, KYSE-70;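 also: cell viability assay read-out, with IC50 expressing suppression of KYSE-70 cell growth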
Description: SANGER: Inhibition of human KYSE-70 cell growth in a cell viability assay.

[6] = tested on: RO82-W-1; format: functional, cell-based, Homo sapiens; conditions: Homo sapiens, RO82-W-1;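 also: growth inhibition of human RO82-W-1 cells, measured with a cell viability assay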
Description: SANGER: Inhibition of human RO82-W-1 cell growth in a cell viability assay.

[7] = tested on: MDA-MB-415; format: functional, cell-based, Homo sapiens; conditions: Homo sapiens, MDA-MB-415
[8] = tested on: CaR-1; format: functional, cell-based, Homo sapiens; conditions: Homo sapiens, CaR-1;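 also: growth inhibition of human CaR-1 cancer cells, read out with a cell viability assay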
Description: SANGER: Inhibition of human CaR-1 cell growth in a cell viability assay.

[9] = tested on: OVCAR-3; format: functional, cell-based, Homo sapiens; conditions: Homo sapiens, OVCAR-3;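 also: growth inhibition of human OVCAR-3 cells, determined by a cell viability assay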
Description: SANGER: Inhibition of human OVCAR-3 cell growth in a cell viability assay.

[10] = tested on: SNU-449; format: functional, cell-based, Homo sapiens; conditions: Homo sapiens, SNU-449
Description: SANGER: Inhibition of human SNU-449 cell growth in a cell viability assay.

[11] = tested on: NCI-H727; format: functional, cell-based, Homo sapiens; conditions: Homo sapiens, NCI-H727;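 also: growth inhibition of human NCI-H727 cells, read out with a cell viability assay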
Description: SANGER: Inhibition of human NCI-H727 cell growth in a cell viability assay.

[12] = tested on: HMV-2 cell line; format: functional, cell-based, Homo sapiens; conditions: Homo sapiens, HMV-2;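 also: growth inhibition of HMV-II cells, read out with a cell viability assay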
Description: SANGER: Inhibition of human HMV-II cell growth in a cell viability assay.

[13] = tested on: NCI-H460; format: functional, cell-based, Homo sapiens; conditions: Homo sapiens, NCI-H460;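 also: cell viability assay scoring growth inhibition of human NCI-H460 cells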
Description: SANGER: Inhibition of human NCI-H460 cell growth in a cell viability assay.

[14] = tested on: EPLC-272H; format: functional, cell-based, Homo sapiens; conditions: Homo sapiens, EPLC-272H
Description: SANGER: Inhibition of human EPLC-272H cell growth in a cell viability assay.

[15] = tested on: NCI-H2029; format: functional, cell-based, Homo sapiens; conditions: Homo sapiens, NCI-H2029;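 also: Read-out is a viability assay on the cultured cells, and IC50 is the concentration that suppresses cell growth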
Description: SANGER: Inhibition of human NCI-H2029 cell growth in a cell viability assay.

[16] = tested on: HT55; format: functional, cell-based, Homo sapiens; conditions: Homo sapiens, HT55;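 also: cell viability readout measuring growth inhibition of human HT55 cells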
Description: SANGER: Inhibition of human HT55 cell growth in a cell viability assay.

[17] = tested on: HT-3; format: functional, cell-based, Homo sapiens; conditions: Homo sapiens, HT-3;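 also: growth inhibition measured with a cell viability readout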
Description: SANGER: Inhibition of human HT-3 cell growth in a cell viability assay.

[18] = tested on: MKN-1; format: functional, cell-based, Homo sapiens; conditions: Homo sapiens, MKN-1;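 also: growth inhibition of human MKN1 cells, read out by a cell viability measurement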
Description: SANGER: Inhibition of human MKN1 cell growth in a cell viability assay.

[19] = tested on: SW1990; format: functional, cell-based, Homo sapiens; conditions: Homo sapiens, SW1990;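 also: cell growth inhibition determined with a viability assay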
Description: SANGER: Inhibition of human SW1990 cell growth in a cell viability assay.

[20] = tested on: 647-V; format: functional, cell-based, Homo sapiens; conditions: Homo sapiens, 647-V;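 also: growth inhibition of 647-V cells, read out with a cell viability assay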
Description: SANGER: Inhibition of human 647-V cell growth in a cell viability assay.

[21] = tested on: A2780; format: functional, cell-based, Homo sapiens; conditions: Homo sapiens, A2780;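 also: growth inhibition of A2780 cells, read out with a cell viability assay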
Description: SANGER: Inhibition of human A2780 cell growth in a cell viability assay.

[22] = tested on: COLO-680N; format: functional, cell-based, Homo sapiens; conditions: Homo sapiens, COLO-680N;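 also: cell viability assay used to measure inhibition of COLO-680N cell growth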
Description: SANGER: Inhibition of human COLO-680N cell growth in a cell viability assay.

[23] = tested on: G-401; format: functional, cell-based, Homo sapiens; conditions: Homo sapiens, G-401
Description: SANGER: Inhibition of human G-401 cell growth in a cell viability assay.

[24] = tested on: LCLC-103H cell line; format: functional, cell-based, Homo sapiens; conditions: Homo sapiens, LCLC-103H
Description: SANGER: Inhibition of human LCLC-103H cell growth in a cell viability assay.

[25] = tested on: JEG-3; format: functional, cell-based, Homo sapiens; conditions: Homo sapiens, JEG-3;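 also: growth inhibition of human JEG-3 cells, read out with a cell viability assay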
Description: SANGER: Inhibition of human JEG-3 cell growth in a cell viability assay.

[26] = tested on: HSC-3; format: functional, cell-based, Homo sapiens; conditions: Homo sapiens, HSC-3
Description: SANGER: Inhibition of human HSC-3 cell growth in a cell viability assay.

[27] = tested on: H4; format: functional, cell-based, Homo sapiens; conditions: Homo sapiens, H4
Description: SANGER: Inhibition of human H4 cell growth in a cell viability assay.

[28] = tested on: KP-4; format: functional, cell-based, Homo sapiens; conditions: Homo sapiens, KP-4;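 also: human KP-4 cells, with growth inhibition read out through a cell viability assay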
Description: SANGER: Inhibition of human KP-4 cell growth in a cell viability assay.

[29] = tested on: MC-IXC; format: functional, cell-based, Homo sapiens; conditions: Homo sapiens, MC-IXC;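 also: growth inhibition of MC-IXC cells, read out with a cell viability assay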
Description: SANGER: Inhibition of human MC-IXC cell growth in a cell viability assay.

[30] = tested on: RVH-421; format: functional, cell-based, Homo sapiens; conditions: Homo sapiens, RVH-421
Description: SANGER: Inhibition of human RVH-421 cell growth in a cell viability assay.

[31] = tested on: EFO-21; format: functional, cell-based, Homo sapiens; conditions: Homo sapiens, EFO-21;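 also: growth inhibition of EFO-21 cells measured with a viability assay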
Description: SANGER: Inhibition of human EFO-21 cell growth in a cell viability assay.

[32] = tested on: LK-2; format: functional, cell-based, Homo sapiens; conditions: Homo sapiens, LK-2;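 also: growth inhibition of LK-2 cells, read out with a viability assay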
Description: SANGER: Inhibition of human LK-2 cell growth in a cell viability assay.

[33] = tested on: NCI-H1651; format: functional, cell-based, Homo sapiens; conditions: Homo sapiens, NCI-H1651;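 also: Read-out is a cell viability assay, with IC50 expressing inhibition of NCI-H1651 cell growth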
Description: SANGER: Inhibition of human NCI-H1651 cell growth in a cell viability assay.

[34] = tested on: CWR22R; format: functional, cell-based, Homo sapiens; conditions: Homo sapiens, 22Rv1;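 also: growth inhibition of 22Rv1 cells, read out with a cell viability assay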
Description: SANGER: Inhibition of human 22RV1 cell growth in a cell viability assay.

[35] = tested on: SIMA; format: functional, cell-based, Homo sapiens; conditions: Homo sapiens, SIMA;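 also: growth inhibition of SIMA cells, measured with a cell viability readout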
Description: SANGER: Inhibition of human SIMA cell growth in a cell viability assay.

[36] = tested on: MEL-JUSO; format: functional, cell-based, Homo sapiens; conditions: Homo sapiens, MEL-JUSO;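 also: growth inhibition of human MEL-JUSO cells, read out with a cell viability assay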
Description: SANGER: Inhibition of human MEL-JUSO cell growth in a cell viability assay.

Row | SMILES | IC50 [1] | IC50 [2] | IC50 [3] | IC50 [4] | IC50 [6] | IC50 [8] | IC50 [9] | IC50 [10] | IC50 [11] | IC50 [13] | IC50 [14] | IC50 [15] | IC50 [16] | IC50 [17] | IC50 [20] | IC50 [21] | IC50 [23] | IC50 [24] | IC50 [26] | IC50 [27] | other results
1 | COc1cc2c(Nc3ccc(NC(=O)c4ccccc4)cc3)ncnc2cc1OCCCN1CCOCC1 | > 4 µM | > 4 µM | > 4 µM | > 4 µM | > 4 µM | > 4 µM | > 4 µM | > 4 µM | > 4 µM | 3.07 µM | > 4 µM | > 4 µM | > 4 µM | > 4 µM | > 4 µM | > 4 µM | > 4 µM | > 4 µM | 3.37 µM | 1.82 µM | IC50 [5]: > 4 µM; IC50 [7]: > 4 µM; IC50 [12]: > 4 µM; IC50 [18]: > 4 µM; IC50 [19]: > 4 µM; IC50 [22]: > 4 µM; IC50 [25]: > 4 µM; IC50 [28]: > 4 µM; IC50 [29]: > 4 µM; IC50 [30]: > 4 µM; IC50 [31]: 3.11 µM; IC50 [32]: 1.65 µM; IC50 [33]: 3.74 µM; IC50 [34]: > 4 µM
2 | CC(C)c1ccccc1Cc1cc(C(=O)Nc2ccc(S(=O)(=O)c3ccccc3C(C)(C)C)cc2)c(O)c(O)c1O | 0.552 µM | 0.308 µM | 0.112 µM | 0.666 µM | 0.398 µM | 5.93 µM | 0.379 µM | 0.372 µM | 0.941 µM | 0.306 µM | 0.703 µM | 14.4 µM | 0.651 µM | 0.192 µM | 0.0884 µM | 0.218 µM | 0.46 µM | 0.21 µM | 0.286 µM | 0.408 µM | IC50 [5]: 5.31 µM; IC50 [12]: 0.309 µM; IC50 [35]: 0.664 µM; IC50 [18]: 0.623 µM; IC50 [19]: 1.67 µM; IC50 [22]: 1.43 µM; IC50 [25]: 0.736 µM; IC50 [28]: 0.455 µM; IC50 [29]: 0.0753 µM; IC50 [30]: 0.253 µM; IC50 [31]: 2.6 µM; IC50 [32]: 1.5 µM; IC50 [33]: 1 µM; IC50 [36]: 0.439 µM; IC50 [34]: 1.03 µM
3 | CC(C)CCN1c2nc(Nc3cc(F)c(O)c(F)c3)ncc2N(C)C(=O)C1C (stereo unspecified) | > 5 µM | 0.882 µM | > 5 µM | 3.22 µM | > 5 µM | > 5 µM | > 5 µM | > 5 µM | > 5 µM | > 5 µM | 4.18 µM | 1.97 µM | > 5 µM | 2.51 µM | > 5 µM | > 5 µM | > 5 µM | > 5 µM | 0.818 µM | 2.48 µM | IC50 [5]: > 5 µM; IC50 [7]: > 5 µM; IC50 [12]: 2.17 µM; IC50 [18]: 3.21 µM; IC50 [19]: > 5 µM; IC50 [22]: > 5 µM; IC50 [25]: 3.69 µM; IC50 [28]: > 5 µM; IC50 [29]: 0.796 µM; IC50 [30]: > 5 µM; IC50 [31]: > 5 µM; IC50 [32]: > 5 µM; IC50 [33]: > 5 µM; IC50 [36]: > 5 µM; IC50 [34]: > 5 µM
4 | Nc1cccc2c1CN(C1CCC(=O)NC1=O)C2=O (stereo unspecified) [LENALIDOMIDE] | > 5 µM | > 5 µM | > 5 µM | > 5 µM | > 5 µM | > 5 µM | > 5 µM | > 5 µM | > 5 µM | > 5 µM | > 5 µM | > 5 µM | > 5 µM | > 5 µM | > 5 µM | > 5 µM | > 5 µM | > 5 µM | > 5 µM | > 5 µM | IC50 [5]: > 5 µM; IC50 [7]: > 5 µM; IC50 [12]: > 5 µM; IC50 [18]: > 5 µM; IC50 [19]: > 5 µM; IC50 [22]: > 5 µM; IC50 [25]: > 5 µM; IC50 [28]: > 5 µM; IC50 [29]: > 5 µM; IC50 [30]: > 5 µM; IC50 [31]: > 5 µM; IC50 [32]: > 5 µM; IC50 [33]: > 5 µM; IC50 [36]: > 5 µM; IC50 [34]: > 5 µM
5 | CN(C)C(=N)NC(=N)N [METFORMIN] | > 20000 µM | > 20000 µM | 14000 µM | > 20000 µM | > 20000 µM | > 20000 µM | 17600 µM | > 20000 µM | > 20000 µM | > 20000 µM | > 20000 µM | 14800 µM | > 20000 µM | 8160 µM | > 20000 µM | 4880 µM | 1590 µM | > 20000 µM | > 20000 µM | > 20000 µM | IC50 [7]: 16800 µM; IC50 [28]: 7050 µM; IC50 [29]: 7890 µM; IC50 [31]: > 20000 µM; IC50 [32]: 9240 µM; IC50 [33]: 18500 µM; IC50 [36]: 16000 µM; IC50 [34]: 18000 µM
6 | CC1(C)CNc2cc(NC(=O)c3cccnc3NCc3ccncc3)ccc21 [MOTESANIB] | > 2 µM | > 2 µM | > 2 µM | > 2 µM | > 2 µM | > 2 µM | > 2 µM | > 2 µM | > 2 µM | > 2 µM | > 2 µM | > 2 µM | > 2 µM | > 2 µM | > 2 µM | > 2 µM | > 2 µM | > 2 µM | > 2 µM | > 2 µM | IC50 [5]: > 2 µM; IC50 [7]: > 2 µM; IC50 [12]: > 2 µM; IC50 [18]: > 2 µM; IC50 [19]: > 2 µM; IC50 [22]: > 2 µM; IC50 [25]: > 2 µM; IC50 [28]: > 2 µM; IC50 [29]: > 2 µM; IC50 [30]: > 2 µM; IC50 [31]: > 2 µM; IC50 [32]: > 2 µM; IC50 [33]: > 2 µM; IC50 [34]: > 2 µM
7 | CCN(CC)CCCCNc1ncc2cc(-c3cc(OC)cc(OC)c3)c(NC(=O)NC(C)(C)C)nc2n1 [PD-173074] | > 2 µM | > 2 µM | > 2 µM | > 2 µM | > 2 µM | > 2 µM | > 2 µM | > 2 µM | > 2 µM | > 2 µM | > 2 µM | > 2 µM | > 2 µM | > 2 µM | > 2 µM | > 2 µM | > 2 µM | > 2 µM | > 2 µM | > 2 µM | IC50 [5]: > 2 µM; IC50 [7]: > 2 µM; IC50 [12]: > 2 µM; IC50 [18]: > 2 µM; IC50 [19]: > 2 µM; IC50 [22]: > 2 µM; IC50 [25]: > 2 µM; IC50 [28]: > 2 µM; IC50 [29]: > 2 µM; IC50 [30]: > 2 µM; IC50 [31]: > 2 µM; IC50 [32]: > 2 µM; IC50 [33]: > 2 µM; IC50 [34]: > 2 µM
8 | Cn1cnc2c(F)c(Nc3ccc(Br)cc3Cl)c(C(=O)NOCCO)cc21 [SELUMETINIB] | > 4 µM | 1.52 µM | > 4 µM | > 4 µM | > 4 µM | > 4 µM | > 4 µM | > 4 µM | > 4 µM | 2.8 µM | > 4 µM | > 4 µM | > 4 µM | > 4 µM | > 4 µM | > 4 µM | > 4 µM | > 4 µM | 1.19 µM | > 4 µM | IC50 [5]: > 4 µM; IC50 [7]: > 4 µM; IC50 [19]: > 4 µM; IC50 [22]: > 4 µM; IC50 [25]: > 4 µM; IC50 [29]: > 4 µM; IC50 [30]: 0.279 µM; IC50 [31]: 3.19 µM; IC50 [32]: > 4 µM; IC50 [33]: > 4 µM; IC50 [34]: > 4 µM
